Measured values as given in article PMC7853623, “Dose- and time-dependent tolerability and efficacy of organo-osmium complex FY26 and its tissue pharmacokinetics in hepatocarcinoma-bearing mice” (Metallomics: Integrated Biometal Science, 2020).

Experiments:
[1] = Tumour and liver osmium uptake after a single ip dose (Experiment 5, ICP-MS); assay type: in vivo, C57Bl/6 mice
Method: Experiment 5 determined FY26⋅Cl uptake in mouse tumour and liver. Hepa1–6-bearing mice were randomly assigned to either treatment or control groups. They received a single ip injection of 5, 10, or 20 mg/kg of FY26⋅Cl or 0.1 M PBS (vehicle) at ZT6 (Table 1). The mice from pre-set subgroups were culled at 6, 24, or 48 h after injection. The subcutaneous tumours in both flanks, as well as liver, spleen, one kidney, an ileum, and a colon segment and brain were sampled and stored at −80°C.
(§1) For Experiments 1 and 2, FY26⋅PF6 was diluted in the vehicle, composed of 1% Tween 80 (Sigma-Aldrich, Gillingham, UK), 5% DMSO (Corning, New York, USA) and 94% of 0.9% saline (Prep room, Life Sciences, University of Warwick) under laminar flow. FY26⋅PF6 concentration was confirmed with ICP-MS. For Experiments 3–5, using FY26⋅Cl, a stock solution of 50 mg/ml FY26⋅Cl was prepared in 0.9% saline on the day of injection and diluted as required; the vehicle consisted of 0.9% saline.
Liver tissue was homogenized by manual mechanical grinding (pestle and mortar) while frozen under liquid N2. Once thawed, ∼90–110 mg of homogenized tissue was pipetted into microwave reaction vessels (10 ml), and tetramethylammonium hydroxide (TMAH, 25% m/v, 2 ml) was added. Tumour tissue was not homogenized and instead digested as whole tissue. It was weighed directly into microwave vials and TMAH was added (100 µl per 5 mg tissue, minimum of 500 µl added). The samples were digested via microwave irradiation (CEM SP-D Discover® microwave reactor, ≥300 W, ≥450 psi) at 200°C for 10 min. Digested samples were diluted in one part DDIW, and then centrifuged at 9000 rpm for 10 min at 20°C. The final analytical samples were prepared by a further 1 in 12.5 dilution in DDIW (total dilution of 1 in 25), ensuring a final TMAH concentration of 1% and total dissolved solids <0.1% […]. TMAH digestion was selected to circumvent the formation of volatile Os species with nitric acid.
Analyses of digested tissue samples were carried out on an Agilent Technologies ICP-MS 7900 spectrometer in a basic aqueous matrix of TMAH (1%, m/v). The osmium concentrations were determined via isotopic detection of ^189Os in gas (He) and no-gas modes, and samples were referenced internally to ^100Ru (10 ppb). A concentration calibration curve was produced by serial dilutions of an osmium standard (1000 ppm) in 1% TMAH: 0, 0.1, 0.25, 0.5, 1, 2.5, 5, 10, 25, 50, 100, 250, 500, and 1000 ppb.

[2] = Tolerability (survival, body weight) in Hepa1–6-bearing C57Bl/6 mice (Experiments 3 and 4); assay type: in vivo
Method: (§2) Male CD1-Foxn1^nu or C57Bl/6 (B6) mice aged 5–10 weeks (Janvier, Le Genest St Isle, France) were housed in groups of three to four mice per cage in temperature-controlled (23 ± 1°C), ventilated (100 ± 10 l/min), and light-tight chronobiological animal facilities (Eurobioconcept, Bonneuil s/Marne, France). They were synchronized with an alternation of 12 h of light (L) and 12 h of darkness (D) (LD12:12), with light starting at 07:00, and had ad libitum access to food and water throughout all the experiments. In line with convention, onset of light and that of darkness are referred to as Zeitgeber time 0 (ZT0) and ZT12, respectively. After one or more weeks on this regimen and on the day prior to tumour inoculation, both flanks of each B6 mouse were shaved using clippers.
(§3) The mice, aged 8–10 weeks, were anesthetized under isoflurane and Hepa1–6-Per2-luc cells were injected subcutaneously in both postero-lateral flanks of each mouse. Mice were then inspected and weighed daily until experiment completion. Tumour sites were inspected daily until tumours became palpable and amenable to daily measurements of perpendicular diameters using callipers. Measurements were always taken at the same circadian time.
(§4) Mean daily tumour weight per mouse was calculated as the average volume of the right and left flank tumours according to (L × W^2)/2, where L is the larger and W the smaller perpendicular diameter, and 1 cm^3 corresponds to 1 g. Mice with an estimated tumour weight exceeding 10% of their body weight or those in poor general condition or loosing >15% of their starting body weight were euthanized, in compliance with our Home Office Project Licence specifications approved by the Animals in Science Committee and Animal Welfare and Ethical Review Body.
(§5) Experiment 3 aimed at assessing the efficacy and tolerability of the more soluble formulation of FY26⋅Cl in Hepa1–6-bearing C57Bl/6 mice. The mice were randomized to receive vehicle or FY26⋅Cl, at a cumulative dose of 60 mg/kg. Treated mice received ip injections of 20 mg/kg of FY26⋅Cl at ZT6 12, 14, and 17 days after tumour inoculation. Control mice received ip vehicle on the same days.
(§6) Experiment 4 aimed at confirming efficacy and optimizing timing and scheduling of the same cumulative dose of 60 mg/kg of FY26⋅Cl. Mice were randomized to receive either vehicle or FY26⋅Cl as four injections of 15 mg/kg at ZT6 or ZT18 on days 11, 14, 17, and 21.
as §1
(§7) Body weight data were expressed as % body weight measured on the first treatment day. Tumour weights for individually treated mice were expressed as % of the median control values, in order to determine % inhibition. Mean and standard error or median and interquartiles were computed for the different treatment groups and experimental conditions, i.e. drug timing and day of assessment. Groups were compared using parametric or non-parametric ANOVAs, respectively.

[3] = test system: Hepa1–6-Per2-luc hepatocarcinoma tumours; assay: Antitumour efficacy in Hepa1–6-bearing C57Bl/6 mice (Experiments 3 and 4); assay type: in vivo; details: for percentage tumour inhibition relative to control: Experiment 4, end
Method: as §2
Mouse hepatocarcinoma (Hepa1–6, ATCC® CRL-1830™) was kindly provided by S. Dulong (INSERM U935, Villejuif, France), following their stable transfection with the Per2-luc [pLV7-Bsd-P(Per2)-dLuc] reporter constructs within the C5SYS ERASYSBIO+ project (FP7). Mouse Hepa1–6-Per2-luc cells were cultured in 15-cm Petri dishes until they reached 80% confluency. On the day of tumour inoculation, the cells were trypsinized and resuspended at a concentration of 10^6 cells/100 µl in PBS solution alone (Experiments 1 and 2) or with 1:1 MatriGel™ (Corning, Flintshire, UK) (Experiments 3–5) and kept on ice until injected.
as §3, §4, §5, §6, §1, §7

A2780 cells = assay: Apoptosis and ROS induction on exposure in A2780 cells; assay type: cell-based; details: data not shown

For CN(C)c1ccc(N=Nc2ccccn2)cc1.Cc1ccc(C(C)C)cc1.[Cl-].[I-].[Os+2] [FY26⋅Cl], the “liver [Os] levels at 6 h relative to 20 or 10 mg/kg” value ([1]; 5 mg/kg single ip, 6 h) was “nearly halved”, the “liver [Os] levels over time” value ([1]; 20 mg/kg single ip) was “remained almost constant until 48 h” and the “tumour [Os] levels over time” value ([1]; 20 mg/kg single ip, 6, 24 and 48 h) was “remained almost constant over time”. For the same compound, the “liver [Os] concentrations over time” value ([1]; 10 and 5 mg/kg single ip) was “decreased sharply at 24 h and remained stable until 48 h”, the “tumour [Os] levels over time” value ([1]; 10 and 5 mg/kg single ip, tumours of both flanks) was “decreased at 24 h and slightly increased at 48 h” and the “tumour uptake as compared to liver (less)” value ([1]; 6 h post-treatment, single ip dose at ZT6, both tumours) was about 10 fold. For the same compound, the “treated mice alive at completion” value ([2]; Experiment 4, 15 mg/kg ip × 4, ZT6 and ZT18) was 45%, the “loss of body weight before treatment” value ([2]; after a cumulative dose of 60 mg/kg) was ~10% (±3.2%) and the “median percentage tumour inhibition relative to controls” value ([3]; Experiment 3, at completion, 20 mg/kg ip × 3 at ZT6) was 76.5%. The “median tumour weight, treatment group” value ([3]; Experiment 3, day 20, 20 mg/kg ip × 3 at ZT6 (control 128.8 mg)) was 30.2 mg, the “median percentage tumour inhibition relative to controls” value ([3]; Experiment 4, at completion, 15 mg/kg ip × 4, irrespective of dosing time) was 42.6% and the “median tumour weight, treatment groups ZT6 and ZT18” value ([3]; Experiment 4, day 23, 15 mg/kg ip × 4 (control 213.2 mg)) was 122.3 mg. For the same compound, the “percentage tumour inhibition relative to control” value ([3]; 15 mg/kg ip × 4 at ZT6) was 12.5%, the “percentage tumour inhibition relative to control” value ([3]; 15 mg/kg ip × 4 at ZT18) was 66% and the “tumour inhibition as compared to controls” value ([3]; hepatocarcinoma-bearing mice, overall statement in discussion) was about 60%. The ROS induction (A2780 cells) was “did induce an increase in ROS” and the induction of apoptosis (A2780 cells) was “did not induce apoptosis”.
